According to PubChem BioAssay (NCI):
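Exposure lasted 48 hours, with cells grown in 96-well plates and compounds tested at five concentrations. TGI marks complete inhibition of growth.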

Key:
Assay in all cases: inhibition of tumour cell growth, NCI panel, 48 h
[1] = tested on: RPMI-8226 leukemia
[2] = tested on: MDA-MB-435
[3] = tested on: HT29 colon
[4] = tested on: OVCAR-3 ovarian
[5] = tested on: UACC-257 melanoma
[6] = tested on: HL-60(TB) leukemia
[7] = tested on: SF-539 CNS
[8] = tested on: M14 melanoma
[9] = tested on: A498 renal
[10] = tested on: SR leukemia
[11] = tested on: 786-0 renal
[12] = tested on: MOLT-4 leukemia
[13] = tested on: RXF 393 renal
[14] = tested on: DU-145 prostate
[15] = tested on: HS 578T breast
[16] = tested on: SK-OV-3 ovarian
[17] = tested on: SNB-75 CNS
[18] = tested on: PC-3 prostate
[19] = tested on: SF-268 CNS
[20] = tested on: IGROV1 ovarian
[21] = tested on: NCI/ADR-RES ovarian
[22] = tested on: U251 CNS
[23] = tested on: SK-MEL-28 melanoma
[24] = tested on: NCI-H226 lung
[25] = tested on: MDA-MB-231 breast
[26] = tested on: CAKI-1 renal
[27] = tested on: UACC-62 melanoma
[28] = tested on: KM12 colon
[29] = tested on: SF-295 CNS
[30] = tested on: COLO 205 colon
[31] = tested on: CCRF-CEM leukemia
[32] = tested on: MCF7 breast
[33] = tested on: MALME-3M melanoma
[34] = tested on: OVCAR-4 ovarian
[35] = tested on: HOP-62 NSCLC
[36] = tested on: LOX IMVI melanoma
[37] = tested on: UO-31 renal
[38] = tested on: NCI-H460 lung
[39] = tested on: MDA-N
[40] = tested on: SK-MEL-2 melanoma
[41] = tested on: OVCAR-5 ovarian
[42] = tested on: ACHN renal
[43] = tested on: HCT-15 colon
[44] = tested on: A549 NSCLC
[45] = tested on: OVCAR-8 ovarian
[46] = tested on: HOP-92 NSCLC
[47] = tested on: EKVX NSCLC
[48] = tested on: K-562 leukemia
[49] = tested on: SN12C renal
[50] = tested on: BT-549 breast
[51] = tested on: HCT-116 colon
[52] = tested on: NCI-H522 lung
[53] = tested on: T-47D breast
[54] = tested on: NCI-H23 lung
[55] = tested on: SNB-19 CNS
[56] = tested on: SW-620 colon
[57] = tested on: HCC-2998 colon
[58] = tested on: SK-MEL-5 melanoma
[59] = tested on: TK-10 renal

SMILES: CC12c3c4ccc(C=O)c3Oc3ccc(C=O)c(c31)Oc1ccc(C=O)c(c12)O4
- TGI [1]: > 25 µM
- TGI [2]: > 25 µM
- TGI [3]: > 25 µM
- TGI [4]: > 25 µM
- TGI [5]: > 25 µM
- TGI [6]: > 25 µM
- TGI [7]: > 25 µM
- TGI [8]: > 25 µM
- TGI [9]: > 25 µM
- TGI [10]: > 25 µM
- TGI [11]: > 25 µM
- TGI [12]: > 25 µM
- TGI [13]: > 25 µM
- TGI [14]: > 25 µM
- TGI [15]: > 25 µM
- TGI [16]: > 25 µM
- TGI [17]: > 25 µM
- TGI [18]: > 25 µM
- TGI [19]: > 25 µM
- TGI [20]: > 25 µM
- TGI [21]: > 25 µM
- TGI [22]: > 25 µM
- TGI [23]: > 25 µM
- TGI [24]: > 25 µM
- TGI [25]: > 25 µM
- TGI [26]: > 25 µM
- TGI [27]: > 25 µM
- TGI [28]: > 25 µM
- TGI [29]: > 25 µM
- TGI [30]: > 25 µM
- TGI [31]: > 25 µM
- TGI [32]: > 25 µM
- TGI [33]: > 25 µM
- TGI [34]: > 25 µM
- TGI [35]: > 25 µM
- TGI [36]: > 25 µM
- TGI [37]: > 25 µM
- TGI [38]: > 25 µM
- TGI [39]: > 25 µM
- TGI [40]: > 25 µM
- TGI [41]: > 25 µM
- TGI [42]: > 25 µM
- TGI [43]: > 25 µM
- TGI [44]: > 25 µM
- TGI [45]: > 25 µM
- TGI [46]: > 25 µM
- TGI [47]: > 25 µM
- TGI [48]: > 25 µM
- TGI [49]: > 25 µM
- TGI [50]: > 25 µM
- TGI [51]: > 25 µM
- TGI [52]: > 25 µM
- TGI [53]: > 25 µM
- TGI [54]: > 25 µM
- TGI [55]: > 25 µM
- TGI [56]: > 25 µM

SMILES: COC(=O)c1c(C)cc(OC)c(C/C=C(\C)CCCc2coc(C=C(C)C)c2)c1OC
- TGI [1]: > 100 µM
- TGI [2]: > 100 µM
- TGI [57]: > 100 µM
- TGI [3]: > 100 µM
- TGI [4]: > 100 µM
- TGI [5]: > 100 µM
- TGI [6]: > 100 µM
- TGI [7]: > 100 µM
- TGI [8]: > 100 µM
- TGI [10]: > 100 µM
- TGI [11]: > 100 µM
- TGI [12]: > 100 µM
- TGI [14]: > 100 µM
- TGI [15]: 79.7 µM
- TGI [17]: > 100 µM
- TGI [18]: > 100 µM
- TGI [19]: > 100 µM
- TGI [58]: > 100 µM
- TGI [20]: > 100 µM
- TGI [21]: > 100 µM
- TGI [59]: > 100 µM
- TGI [22]: > 100 µM
- TGI [23]: > 100 µM
- TGI [25]: > 100 µM
- TGI [26]: > 100 µM
- TGI [27]: > 100 µM
- TGI [28]: > 100 µM
- TGI [29]: > 100 µM
- TGI [30]: > 100 µM
- TGI [31]: > 100 µM
- TGI [32]: > 100 µM
- TGI [34]: > 100 µM
- TGI [35]: > 100 µM
- TGI [36]: > 100 µM
- TGI [37]: > 100 µM
- TGI [38]: > 100 µM
- TGI [39]: > 100 µM
- TGI [40]: > 100 µM
- TGI [41]: > 100 µM
- TGI [42]: > 100 µM
- TGI [43]: > 100 µM
- TGI [44]: > 100 µM
- TGI [45]: > 100 µM
- TGI [46]: > 100 µM
- TGI [47]: > 100 µM
- TGI [48]: > 100 µM
- TGI [49]: > 100 µM
- TGI [50]: > 100 µM
- TGI [51]: > 100 µM
- TGI [52]: > 100 µM
- TGI [53]: > 100 µM
- TGI [54]: > 100 µM
- TGI [55]: > 100 µM
- TGI [56]: > 100 µM
